31 compounds from patent publication US5747320A (The United States of America, as represented by the …, priority 1996, dated 1998) can be followed below.

“Also recorded” adds a separate entry of the source. Bounds are passed on as bounds.

The test system of assay [1] is purified β-glucosidase from Candida peltata Y-21603. Description: Inhibition by glucose, cellobiose and other sugars; inhibitors and activators (pNPβG hydrolysis assay). The class given is biochemical. As for the experimental part:
FIG. 4. […] Reaction time was 15 min at pH 5.0 and 50° C. Enzyme used, 39 mU/ml. pNPβG used: .smallcircle., 0.4 mM; .circle-solid., 0.8 mM; .tangle-solidup., 1.2 mM; Δ, 1.6 mM; .quadrature., 2.0 mM; .box-solid., 2.4 mM.
After incubation at 50° C. for 30 min, the reaction was stopped by adding ice-cold 0.5M Na2 CO3 (1 ml) and the color developed as a result of p-nitrophenol (pNP) liberation was measured at 405 nm.
Inhibition by glucose cellobiose and other sugars. The study of inhibition by glucose was performed with pNPβG as substrate.
Inhibitors and activators.

Assay [2] has the same test system. Description: Substrate specificity and kinetic analysis (Lineweaver-Burk). Type of assay: biochemical. As to conditions: for Vmax / Km: pH 5.0 and 50° C.; for Km: read-out: apparent Km; for relative rate of hydrolysis, of that of pNPβG: aryl-glycosides; for activity on substrate (relative rate of hydrolysis): disaccharides. From the text:
Substrate specificity and kinetic analysis. Relative rates of hydrolysis of various substrates by the purified β-glucosidase were studied. The enzyme could hydrolyze pNPβG and cellobiose effectively. Salicin was hydrolyzed at 34% of that of cellobiose. The purified enzyme had very little (<5%) or no activity on lactose, maltose, sucrose and trehalose. It also had no or very little activity on p-nitrophenyl-α-D-glucoside, p-nitrophenyl-β-D-xyloside, p-nitrophenyl-β-D-cellobioside, p-nitrophenyl-α-L-arabinofuranoside, and p-nitrophenyl-β-D-glucuronide (<5%). p-Nitrophenyl-β-D-galactoside was hydrolyzed at 6% of that of pNPβG. The reaction kinetics of the purified enzyme were determined from Lineweaver-Burk plots using pNPβG and cellooligosaccharides (cellobiose to cellohexaose) as substrates under optimal conditions (pH 5.0 and 50° C.).

Assay [3] shares this test system. Description: Inhibition by glucose, cellobiose and other sugars; inhibitors and activators (pNPβG hydrolysis assay). The class given is biochemical. This is another data set of the same source.
Assay [4] has as its system Candida peltata Y-21603. Description: Growth and β-glucosidase production on various carbon sources. Type of assay: cell-based. As to conditions: 28° C., 4 days. How it is done: Yeast strain, medium and culture conditions. The yeast strain (C. peltata NRRL Y-21603, also available as NRRL Y-6888) used in this study was obtained from the ARS culture collection, NCAUR, Peoria, Ill. The medium ([…] et al., 1982, Biotechnol. […] Solution A was a trace mineral solution having the following ingredients (per L): 1.1 g CaO, 0.4 g ZnO, 5.4 g FeCl3 ·6H2 O, 0.25 g CuSO4.5H2 O, 0.24 g CoCl2.6H2 O, 0.06 g H3 BO3 and 13 ml concentrated HCl. Solution B (per L) was composed of 10.1 g MgO and 45 ml concentrated HCl. Solution C (per L) contained 64 g urea, 12 g KH2 PO4, and 1.8 g Na2 HPO4. Substrates were sterilized separately. […] After 4 days, the cells were removed from the culture broth by centrifugation (18,000×g, 20 min). The resulting supernatant solution was used as the crude enzyme preparation. […] Analytical methods. […] Glucose was a good growth substrate for production of β-glucosidase.

Consider `[Mn+2]` [Mn^2+], for which the “dependence of enzyme activity on metal ion” value (from here on “dependence of enzyme activity”) in assay [1] (5 mM) was “not dependent”.
Regarding `CCO` [ethanol], the “increase of pNPβG hydrolysis (initial activity)” value in assay [1] (0.75% (v/v) ethanol, pH 5.0, 50° C., 30 min reaction) is given as 11%.
As for `OC[C@H]1O[C@@H](O[C@H]2[C@H](O)[C@@H](O)[C@H](O[C@H]3[C@H](O)[C@@H](O)[C@H](O[C@H]4[C@H](O)[C@@H](O)C(O)O[C@@H]4CO)O[C@@H]3CO)O[C@@H]2CO)[C@H](O)[C@@H](O)[C@@H]1O` (stereo partly drawn) [cellotetraose], in assay [2], the Vmax is reported as 16 μmol.min^-1.mg^-1 protein and the Km is 35 mM.
In the case of `O=[N+]([O-])c1ccc(O[C@H]2O[C@H](CO)[C@@H](O)[C@H](O)[C@H]2O)cc1` [p-nitrophenyl-α-D-glucoside], the “relative rate of hydrolysis, of that of pNPβG” value (from here on “relative rate … of pNPβG”) in assay [2] (purified enzyme) was < 5%.
The same measure, in the same setting: with `O=[N+]([O-])c1ccc(O[C@@H]2O[C@@H](CO)[C@H](O)[C@H]2O)cc1` [p-nitrophenyl-α-L-arabinofuranoside] the figure was < 5%.
Turning to `OC[C@H]1OC(O)[C@@H](O)[C@@H](O)[C@@H]1O` (stereo partly drawn) [mannose], the “inhibition of β-glucosidase activity” value in assay [1] (sugar at 56 mM) is reported as “did not inhibit”.
As for `O[C@H](CS)[C@H](O)CS` (racemic) [DTT, dithiothreitol], the “effect on enzyme activity” value in assay [1] (10 mM) is recorded as “not affected”.
As to `O=C(O)[C@H]1O[C@@H](Oc2ccc([N+](=O)[O-])cc2)[C@H](O)[C@@H](O)[C@@H]1O` [p-nitrophenyl-β-D-glucuronide], the “relative rate … of pNPβG” value in assay [2] (purified enzyme) is reported as < 5%.
Regarding `O=[N+]([O-])c1ccc(O[C@@H]2O[C@H](CO)[C@@H](O)[C@H](O)[C@H]2O)cc1` [pNPβG, p-nitrophenyl β-D-glucoside], in assay [2], the Vmax is 221 μmol.min^-1.mg^-1 protein and the Km came to 2.3 mM. In assay [3] (40 mM pNPβG), the substrate inhibition entry is on record as “not observed at all; also recorded: not inhibited at all”.
Turning to `OC[C@H]1O[C@@H](O[C@H]2[C@H](O)[C@@H](O)[C@H](O[C@H]3[C@H](O)[C@@H](O)C(O)O[C@@H]3CO)O[C@@H]2CO)[C@H](O)[C@@H](O)[C@@H]1O` (stereo partly drawn) [cellotriose], in assay [2], the Vmax is recorded as 32 μmol.min^-1.mg^-1 protein and the Km came out at 39 mM.
For the compound `O=[N+]([O-])c1ccc(O[C@@H]2O[C@H](CO)[C@@H](O[C@@H]3O[C@H](CO)[C@@H](O)[C@H](O)[C@H]3O)[C@H](O)[C@H]2O)cc1` [p-nitrophenyl-β-D-cellobioside], the “relative rate … of pNPβG” value in assay [2] (purified enzyme) was < 5%.
Regarding `OCc1ccccc1O[C@@H]1O[C@H](CO)[C@@H](O)[C@H](O)[C@H]1O` [Salicin], in assay [2] (purified enzyme), the “relative rate of hydrolysis, of that of cellobiose” value is reported as 34%.
On to `OC[C@H]1O[C@H](O[C@H]2[C@H](O)[C@@H](O)[C@H](O)O[C@@H]2CO)[C@H](O)[C@@H](O)[C@@H]1O` [Maltose, maltose], for which the “Growth (A660)” value in assay [4] (carbon source 1% w/v) is on record as 9.3. Besides, the “activity on substrate (relative rate of hydrolysis)” value in assay [2] (purified enzyme) is reported as < 5%.
For the compound `[Ca+2]` [Ca^2+], in assay [1] (5 mM), the “dependence of enzyme activity” value is reported as “not dependent”.
With `[Co+2]` [Co^2+], the “dependence of enzyme activity” value in assay [1] (0.5 mM) is listed as “not dependent”.
For `O=C(CO)[C@@H](O)[C@H](O)[C@H](O)CO` [fructose], the “inhibition of β-glucosidase activity” value in assay [1] (sugar at 56 mM) is “did not inhibit”.
Consider `OC[C@H]1O[C@H](O[C@H]2O[C@H](CO)[C@@H](O)[C@H](O)[C@H]2O)[C@H](O)[C@@H](O)[C@@H]1O` [trehalose], for which the “activity on substrate (relative rate of hydrolysis)” value in assay [2] (purified enzyme) is < 5%.
Consider `OC[C@H]1O[C@@H](O[C@H]2[C@H](O)[C@@H](O)[C@H](O[C@H]3[C@H](O)[C@@H](O)[C@H](O[C@H]4[C@H](O)[C@@H](O)[C@H](O[C@H]5[C@H](O)[C@@H](O)C(O)O[C@@H]5CO)O[C@@H]4CO)O[C@@H]3CO)O[C@@H]2CO)[C@H](O)[C@@H](O)[C@@H]1O` (stereo partly drawn) [cellopentaose], for which, in assay [2], the Vmax is recorded as 8 μmol.min^-1.mg^-1 protein and the Km worked out at 21 mM.
As to `[Mg+2]` [Mg^2+], the “dependence of enzyme activity” value in assay [1] (5 mM) is given as “not dependent”.
Turning to `O=[N+]([O-])c1ccc(O[C@@H]2OC[C@@H](O)[C@H](O)[C@H]2O)cc1` [p-nitrophenyl-β-D-xyloside], the “relative rate … of pNPβG” value in assay [2] (purified enzyme) was < 5%.
`OC[C@H]1O[C@@H](O[C@H]2[C@H](O)[C@@H](O)C(O)O[C@@H]2CO)[C@H](O)[C@@H](O)[C@@H]1O` (stereo partly drawn) [Cellobiose, cellobiose]: in assay [4] (carbon source 1% w/v), the “Growth (A660)” value came to 8.7. For the same compound, in assay [2], the Vmax is 75 μmol.min^-1.mg^-1 protein and the Michaelis-Menten constant (Km) came out at 66 mM. In assay [3] (15% cellobiose), the substrate inhibition result is on record as “no inhibition; also recorded: not observed at all; also recorded: not inhibited at all”.
For the compound `O=C(O)c1cc[c]([Hg][Cl])cc1` [pCMB, p-chloromercuribenzoic acid], in assay [1] (0.2 mM), the “effect on enzyme activity” value is given as “not affected; also recorded: unaffected”.
For the compound arabinose, in assay [1] (sugar at 56 mM), the “inhibition of β-glucosidase activity” value is given as “did not inhibit”.
With `OC1OC[C@@H](O)[C@H](O)[C@H]1O` (stereo partly drawn) [Xylose, xylose], the “Growth (A660)” value in assay [4] (carbon source 1% w/v) is 11.3. Further, the “inhibition of β-glucosidase activity” value in assay [1] (sugar at 56 mM) is recorded as “did not inhibit”.
Consider `OC[C@H]1O[C@@H](O[C@H]2[C@H](O)[C@@H](O)[C@H](O[C@H]3[C@H](O)[C@@H](O)[C@H](O[C@H]4[C@H](O)[C@@H](O)[C@H](O[C@H]5[C@H](O)[C@@H](O)[C@H](O[C@H]6[C@H](O)[C@@H](O)C(O)O[C@@H]6CO)O[C@@H]5CO)O[C@@H]4CO)O[C@@H]3CO)O[C@@H]2CO)[C@H](O)[C@@H](O)[C@@H]1O` (stereo partly drawn) [cellohexaose], for which, in assay [2], the Vmax is recorded as 5 μmol.min^-1.mg^-1 protein and the Km is 18 mM.
For the compound `O=C[C@H](O)[C@@H](O)[C@@H](O)CO` [L-Arabinose], in assay [4] (carbon source 1% w/v), the “Growth (A660)” value is reported as 9.4.
Take `OC[C@H]1O[C@@H](O[C@H]2[C@H](O)[C@@H](O)C(O)O[C@@H]2CO)[C@H](O)[C@@H](O)[C@H]1O` (stereo partly drawn) [Lactose, lactose]: the “Growth (A660)” value in assay [4] (carbon source 1% w/v) is 2.5. In addition, the “activity on substrate (relative rate of hydrolysis)” value in assay [2] (purified enzyme) is on record as < 5%. Besides, in assay [1] (sugar at 29 mM), the “inhibition of β-glucosidase activity” value is recorded as “did not inhibit”.
On to `O=[N+]([O-])c1ccc(O[C@@H]2O[C@H](CO)[C@H](O)[C@H](O)[C@H]2O)cc1` [p-Nitrophenyl-β-D-galactoside], for which the “relative rate … of pNPβG” value in assay [2] (purified enzyme) was determined as 6%.
Consider `OC[C@H]1OC(O)[C@H](O)[C@@H](O)[C@@H]1O` (stereo partly drawn) [Glucose, glucose], for which the “Growth (A660)” value came out at 10.7 in assay [4] (carbon source 1% w/v); 13.7 in assay [4] (carbon source 2% w/v); 13.3 in assay [4] (carbon source 4% w/v); 9.7 in assay [4] (carbon source 8% w/v); 7.9 in assay [4] (carbon source 12% w/v); 7.3 in assay [4] (carbon source 20% w/v).
As for `OC[C@H]1O[C@@](CO)(O[C@H]2O[C@H](CO)[C@@H](O)[C@H](O)[C@H]2O)[C@@H](O)[C@@H]1O` [Sucrose, sucrose], the “Growth (A660)” value in assay [4] (carbon source 1% w/v) is listed as 9.0. Further, the “activity on substrate (relative rate of hydrolysis)” value in assay [2] (purified enzyme) is on record as < 5%. Moreover, in assay [1] (sugar at 29 mM), the “inhibition of β-glucosidase activity” value is listed as “did not inhibit”.
As to `OC[C@H]1OC(O)[C@H](O)[C@@H](O)[C@H]1O` (stereo partly drawn) [Galactose], in assay [1] (sugar at 56 mM), the “inhibition of β-glucosidase activity” value was “did not inhibit”.

For orientation: Km means the substrate concentration at which the rate is half of its maximum.
